# Measurements reported in patent US20110117009A1, “DRUG CONJUGATES WITH POLYGLYCEROLS” (FREIE UNIVERSITÄT BERLIN, priority 2008, published 2011).
# Marks after values point to notes of the source that are not given here.
# What was measured:
# [1] = system: human ovarian cancer xenografts (A2780); experiment: In vivo efficacy in the ovarian carcinoma A2780 xenograft model; parameters: species or system female NMRI: nu/nu mice; settings: doxorubicin 2×8 mg/kg, conjugates 3×24 mg/kg doxorubicin equivalents
# Protocol: The mice were held in individually ventilaged cages (IVC) under sterile and standardized environmental conditions (25±2° C. room temperature, 50±10% relative humidity, 12 hour light-dark-rhythm). They received autoclaved food and bedding (ssniff, Soest, Germany) and acidified (pH 4.0) drinking water ad libitum. […] Mice were randomly distributed to the experimental groups (8 mice per group). When the tumors were grown to a palpable size, treatment was initiated.
# Tumor size was measured twice weekly with a caliper-like instrument in two dimensions. Individual tumor volumes (V) were calculated by the formula V=(length×[width]^2)/2 and related to the values on the first day of treatment (relative tumor volume, RTV). Statistical analysis was performed with the U-test (Mann and Whitney) with p<0.05. The body weight of mice was determined every 3 to 4 days.
# [2] = nude mice models, e.g. 2×12 mg/kg; cited from earlier work
# [3] = system: AsPC1 LN; experiment: Cytotoxicity, luciferase readout after 72 h; type: cell-based; settings: Homo sapiens
# Protocol: After 72 h cells were lysed in 100 μL of luciferase assay buffer, and an aliquot of the lysate was assayed for luciferase activity.
# [4] = Tolerability (mortality, body weight change) in the A2780 xenograft study; type: in vivo, female NMRI: nu/nu mice; settings: i.v. weekly, doxorubicin 2×8 mg/kg, conjugates 3×24 mg/kg doxorubicin equivalents
# Protocol: In vivo efficacy studies were carried out with compounds 1-A, 1-B, and 1-C and doxorubicin in the ovarian carcinoma A2780 xenograft model. For the in vivo testing, female NMRI: nu/nu mice (Taconic, Denmark) were used. The mice were held in individually ventilaged cages (IVC) under sterile and standardized environmental conditions (25±2° C. room temperature, 50±10% relative humidity, 12 hour light-dark-rhythm). They received autoclaved food and bedding (ssniff, Soest, Germany) and acidified (pH 4.0) drinking water ad libitum. A2780 tumor fragments were transplanted subcutaneously (s.c.) into the left flank region of anaesthetized (40 mg/kg i.p. Radenarkon, Asta Medica, Frankfurt, Germany) mice on day zero. […]
# Tumor size was measured twice weekly with a caliper-like instrument in two dimensions. Individual tumor volumes (V) were calculated by the formula V=(length×[width]^2)/2 and related to the values on the first day of treatment (relative tumor volume, RTV). […] The body weight of mice was determined every 3 to 4 days.
# The standard and maximum tolerated dose of doxorubicin (2×8 mg/kg) was compared to compounds 1-A, 1-B, and 1-C at 3×24 mg/kg (doxorubicin equivalents). […] J. Drug Targeting, 8: 305-318, 2000; Trail et al.: Antigen-specific activity of carcinoma-reactive BR64-doxorubicin conjugates evaluated in vitro and in human tumor xenograft models. […]
compound,measurement,setting,value
"COc1cccc2c1C(=O)c1c(O)c3c(c(O)c1C2=O)C[C@@](O)(C(=O)CO)C[C@@H]3O[C@H]1C[C@H](N)[C@H](O)[C@H](C)O1 [Doxorubicin, doxorubicin]",antitumor efficacy (in words),[1]; A2780 xenografts,moderate antitumor efficacy
same,optimum T/C RTV,"[1]; i.v. weekly, relative tumor volume treated versus control",15* %
same,toxicity at higher doses,[2],unacceptable toxicity and mortality
same,IC50,[3],360 nM
same,toxic death,[4]; 8 mice per group,0
same,BWC (body weight change),[4]; day in brackets,−21 (d26) %
